Read-outs that look alike come from different tables or passages of the source. Peptide text beside a SMILES is read from it.
How the values were obtained:
CD8+ cells [1] = experiment: Intracellular IFN-γ assay by FACS (ICS) on lymphocytes of immunized mice; assay type: in vivo, BALB/c mice; conditions: for immunogenicity of WT counterpart (functional effector T cells): mice immunized with the WT counterpart of the named neo-epitope
Description: Intracellular IFN-γ assay by FACS and ELISPOT. Lymphocytes were incubated either with or without 1-10 μg/ml peptide. GolgiPlug (BD Biosciences, San Jose, Calif.) was added 1 h later. After incubation of 12 to 16 h, cells were stained for CD44 (clone IM7), CD4 (clone GK1.5) and CD8 (clone 53-6.7) (BD Biosciences, San Jose, Calif.), fixed and permeabilized using the Cytofix/Cytoperm™ kit (BD Biosciences, San Jose, Calif.), and stained for intracellular IFN-γ using Phycoerythrin-conjugated anti-mouse IFN-γ (clone XMG1.2, BD Biosciences, San Jose, Calif.). Cells were stained with 1 μl antibody/million cells in 50 μl staining buffer (PBS with 1% bovine serum albumin) and incubated for 20 min at 4° C. in the dark, or according to the manufacturer's instructions. Cells without peptide stimulation were used as a negative control, and the values for these controls was very close to the values seen with the negative control peptide. Typically, 95,000-129,000 lymphocytes (14,500-17,000 CD8+CD4− cells) were acquired. The background is consistently very low (10% of the signal).
(§1) All 18 peptides were used to immunize BALB/c mice. The draining lymph nodes (dLNs) of immunized mice were harvested one week after the single immunization, and the cells were stimulated in vitro for 16 h without any added peptide, the mutant peptide used for immunization, or the corresponding wild type peptide. The CD8+ cells were analyzed for activation (CD44+) and effector function (intracellular IFNγ+). (see Materials and Methods regarding the details of FACS analysis.) All possible patterns of immune-reactivity were observed (FIG. 3A): no immune response (12/18), a mutant peptide-specific, i.e. tumor-specific immune response (5/18), and a cross-reactive response between the mutant and corresponding wild type peptides (1/18).

CMS5 = experiment: Tumor challenge / tumor rejection after peptide immunization, CMS5; assay type: in vivo, BALB/c mice
Description: Tumor challenge and representation of tumor growth. AUC as a tool to measure tumor growth has been described previously. Briefly, AUC was calculated by selecting “Curves & Regression” and then “Area under curve” from the “analyze” tool, using the Prism 5.0 (GraphPad Software, Inc., La Jolla, Calif.). Grubb' test was used to remove up to one outlier from each group.
Depletion of T cell subsets. Immunized mice were depleted of CD8 cells using anti-CD8 rat IgG2b monoclonal antibody 2.43), or depleted of CD4 cells using anti-CD4 rat IgG2b monoclonal antibody GK1.5. Depleting antibodies were given in PBS intraperitoneally two days before tumor challenge and every seven days for the duration of the experiment. First three injections of depleting antibodies were 250 μg per mouse and the later injections were 500 μg per mouse. For treatment with antagonistic antibodies, mice were treated with anti-CD25 antibody (clone PC61, 250 μg, two days before tumor challenge) or anti-CTLA-4 antibody (clone 9D9, 100 μg, seven days before and every three days after tumor challenge). The appropriate T cell sub-sets were depleted by over 95%.
Lack of immuno-protective activity of the strongest K^d-binding neo-epitopes. […]

CD8+ cells [2] = experiment: IFNγ ELISPOT on CD8+ cells of immunized mice; assay type: in vivo, BALB/c mice; conditions: for ELISpot: mice immunized with mutant peptide; for CD8 T cell response of immunized mice: text, ELISPOT
Description: For the ELISPOT assays, the negative controls were CD8+ cells from immunized mice without peptide stimulation. […] The magnitude of responses was rated by mean spot numbers per million CD8+ cells: 5-10 (+); 11-20 (++); 21-50 (+++); 51-100(++++) and >100(+++++).
as §1

H-2 K^d = molecular target: T1, H-2 K^d (Mus musculus, UniProt P01902); experiment: Binding assays: inhibition of binding of a radiolabeled standard peptide to purified MHC molecules
T1 sequence (P01902 22-368): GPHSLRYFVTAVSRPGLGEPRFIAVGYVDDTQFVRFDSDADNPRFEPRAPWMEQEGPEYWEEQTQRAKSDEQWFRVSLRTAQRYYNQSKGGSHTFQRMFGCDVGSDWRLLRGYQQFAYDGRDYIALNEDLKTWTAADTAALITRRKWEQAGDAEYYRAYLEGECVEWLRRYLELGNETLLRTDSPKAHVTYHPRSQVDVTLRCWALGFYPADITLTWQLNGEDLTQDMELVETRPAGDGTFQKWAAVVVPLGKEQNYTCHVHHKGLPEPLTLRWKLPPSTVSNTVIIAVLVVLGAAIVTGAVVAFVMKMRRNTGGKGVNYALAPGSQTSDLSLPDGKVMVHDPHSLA
T1 sequence (P01887 21-119 partner): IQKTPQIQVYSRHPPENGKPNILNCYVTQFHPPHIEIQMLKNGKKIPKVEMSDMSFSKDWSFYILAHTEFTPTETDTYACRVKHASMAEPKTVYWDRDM
Description: Binding assays. Binding of peptides to H-2 K^d was determined using quantitative assays based on the inhibition of binding of a radiolabeled standard peptide to purified MHC molecules essentially as described previously. […] Under the conditions utilized, where [label]<[MHC] and IC50≥[MHC], the measured IC50 values are reasonable approximations of the dissociation constant values.

CC(C)[C@H](NC(=O)[C@H](CO)NC(=O)[C@@H](NC(=O)[C@H](CCCCN)NC(=O)[C@H](C)NC(=O)[C@H](CCCCN)NC(=O)[C@H](CO)NC(=O)[C@@H](NC(=O)[C@H](Cc1ccccc1)NC(=O)[C@H](Cc1ccc(O)cc1)NC(=O)CN)C(C)C)[C@@H](C)O)C(=O)O (racemic) [Abr]
immunogenicity of WT counterpart (functional effector T cells) (CD8+ cells [1]): elicited functional effector T cells in vivo

CSCC[C@H](NC(=O)[C@@H]1CCCN1C(=O)[C@@H](NC(=O)[C@H](Cc1ccc(O)cc1)NC(=O)[C@@H](N)CC(=O)O)C(C)C)C(=O)N[C@@H](CCC(=O)O)C(=O)N[C@@H](CCC(N)=O)C(=O)N1CCC[C@H]1C(=O)N[C@@H](CCCNC(=N)N)C(=O)O [Alkbh6.2, D(y/D)VPMEQPR] (H-DYVPMEQPR-OH; N-terminus and C-terminus assumed)
CD8 T cell response by intracellular cytokine assay (CD8+ cells [1]): un-detectable by the intracellular cytokine assay
protection from tumor growth / tumor rejection (CMS5): representative neo-epitopes that do
ELISpot (CD8+ cells [2]): ++ (10-20 spots/10^6 CD8 = ++)
CD8 T cell response of immunized mice (CD8+ cells [2]): modest CD8 T cell response

CC(C)C[C@H](NC(=O)[C@H](Cc1ccc(O)cc1)NC(=O)[C@@H](N)CC(C)C)C(=O)N[C@@H](CC(=O)O)C(=O)N[C@@H](CO)C(=O)N[C@@H](CCCCN)C(=O)N[C@@H](CO)C(=O)N[C@@H](CC(=O)O)C(=O)N[C@H](C(=O)N[C@H](C(=O)N[C@H](C(=O)O)C(C)C)[C@@H](C)O)[C@@H](C)O [Alms1.1]
immunogenicity of WT counterpart (functional effector T cells) (CD8+ cells [1]): elicited functional effector T cells in vivo

CC(C)C[C@H](NC(=O)[C@@H]1CCCN1C(=O)[C@@H](NC(=O)[C@H](CCCNC(=N)N)NC(=O)[C@H](CCCCN)NC(=O)[C@H](CC(C)C)NC(=O)[C@H](CC(C)C)NC(=O)[C@@H]1CCCN1C(=O)[C@@H](NC(=O)[C@H](Cc1ccc(O)cc1)NC(=O)[C@@H](N)Cc1ccc(O)cc1)C(C)C)C(C)C)C(=O)O [Alms1.2] (H-YYVPLLKRVPL-OH)
immunogenicity of WT counterpart (functional effector T cells) (CD8+ cells [1]): elicited functional effector T cells in vivo
ELISpot (CD8+ cells [2]): ++ (10-20 spots/10^6 CD8 = ++)
IC50 (H-2 K^d): 1480 nM
IC50 (H-2 K^d; mutant peptide, read-out: Measured IC50 for K^d (Mut/WT): Mut): 421 nM

CSCC[C@H](NC(=O)[C@H](CC(C)C)NC(=O)CNC(=O)[C@@H]1CCCN1C(=O)[C@H](Cc1ccccc1)NC(=O)[C@@H](NC(=O)[C@@H](N)CCC(N)=O)C(C)C)C(=O)N[C@@H](CCC(=O)O)C(=O)N[C@@H](CC(C)C)C(=O)O [Atxn10.1] (H-QVFPGLMEL-OH; N-terminus and C-terminus assumed)
CD8 T cell response by intracellular cytokine assay (CD8+ cells [1]): un-detectable by the intracellular cytokine assay
protection from tumor growth / tumor rejection (CMS5): representative neo-epitopes that do
ELISpot (CD8+ cells [2]): +++ (21-50 spots/10^6 CD8 = +++)
CD8 T cell response of immunized mice (CD8+ cells [2]): modest CD8 T cell response
IC50 (H-2 K^d; WT counterpart peptide, read-out: Measured IC50 for K^d (Mut/WT): WT): 7050 nM

CC[C@H](C)[C@H](NC(=O)[C@H](Cc1ccc(O)cc1)NC(=O)[C@@H](N)[C@@H](C)O)C(=O)N[C@@H](CCCNC(=N)N)C(=O)N1CCC[C@H]1C(=O)N[C@@H](Cc1ccccc1)C(=O)N[C@@H](CCC(=O)O)C(=O)N[C@H](C(=O)N[C@@H](CCCCN)C(=O)N[C@H](C(=O)O)C(C)C)[C@@H](C)O [Ccdc85c, TYIRP(f/L)ETKV] (H-TYIRPFETKV-OH)
immunogenicity of WT counterpart (functional effector T cells) (CD8+ cells [1]): elicited functional effector T cells in vivo

SIINFEKL (listed as Gallus gallus) [reference compound]
CD8 response after second immunization (Prime vs Boost) (CD8+ cells [1]; 100 μg peptide once or twice with a 29-day interval): amplified by a second immunization

Reference: patent US11338026B2, “Identification of immunologically protective neo-epitopes for the treatment of cancers” (THE UNIVERSITY OF CONNECTICUT, priority 2014, dated 2022)
